Source: patent US11254671B2, “Chemical compounds” (GLAXOSMITHKLINE INTELLECTUAL PROPERTY DEVELOPMENT LIMITED, priority 2017, dated 2022)
“And” between values parts separate entries of the source, which are not always exact repeats. Equal values may be shown once.

Molecular target: T1, mTOR (Homo sapiens, UniProt P42345)
T1 construct: capturing of endogenously expressed target proteins from cell extracts by a bead-immobilized capturing ligand; endogenous in cells; host or cells: HuT-78 cells (ECACC 88041901), cell lysate
Test: mTOR kinobeads assay (competition-binding assay)
Conditions: HuT-78 cell extract, endogenously expressed mTOR, bead-immobilized capturing ligand; mean of multiple experiments; read-out: mean pIC50, affinity for mTOR (converted)
Experimental: The affinity of test compounds for mTOR was determined in the mTOR kinobeads assay. This is a competition-binding assay based on the capturing of endogenously expressed target proteins from cell extracts by a bead-immobilized capturing ligand in presence of the test compound.
HuT-78 cells (European Collection of Authenticated Cell Cultures, 88041901) were cultured according to vendor's instructions. Frozen cell pellets were homogenized in 3× pellet volumes lysis buffer (50 mM Tris-HCl, 0.4% (v/v) Igepal-CA630, 5% glycerol, 150 mM NaCl, 1.5 mMMgCl2, 25 mM NaF, 1 mM sodium vanadate, 1 mM DTT, pH 7.5, supplemented with EDTA-free protease inhibitor tablet (Roche)). The sample was dispersed using a Dounce homogenizer, kept rotating for 30 min at 4° C., and centrifuged for 10 min at 20 000 g at 4° C. The supernatant was centrifuged again for 1 h at 145 000 g. The protein concentration was determined by Bradford assay (BioRad), aliquots were snap frozen in liquid nitrogen and stored at −80° C.
The capturing matrices were generated by derivatizing N-hydroxysuccinimide (NHS) activated Sepharose 4 beads (GE Healthcare) with the functionalized ligands Compound A and Compound C at a ligand density of 5 mM. Remaining NHS-groups were blocked with ethanolamine.
For the mTOR kinobeads assay the matrices were combined in a 1:1 ratio and equilibrated in DP buffer (50 mM Tris-HCl (pH 7.5), 0.4% (v/v) Igepal-CA630, 5% (v/v) glycerol, 150 mM NaCl, 1.5 mM MgCl2, 25 mM NaF, 1 mM Na3VO4, 1 mM dithiothreitol). All steps of the mTOR kinobeads assay were performed at 4° C. or on ice. The cell lysate was diluted with DP buffer to a final concentration of 5 mg/ml and a final detergent concentration of 0.4% (v/v) Igepal-CA630. For the assay 250 μg cell lysate and 2.5 μl capturing matrix per well (final assay volume: 75 μl) were incubated in the presence of test compounds in a 384-well filter plate (MultiScreenHTS HV Filter Plate, 0.45 μm, MZHVNOW50, Merck Millipore). Each plate contained 16 positive (100 μM Compound B) and 16 negative (2% v/v DMSO) control wells. Compounds were tested in a concentration-response applying 1:3 or 1:4 dilution steps for in total 11 data points. DMSO concentration was 2% (v/v). After 2 h incubation on an overhead shaker (Roto-Shake Genie, Scientific Industries Inc.) at 4° C. the non-bound fraction was removed by washing the beads with DP buffer. Proteins retained on the beads were eluted in SDS sample buffer (200 mM Tris (pH 7.4), 250 mM Trizma Base, 4% (w/v) SDS, 20% (v/v) glycerol, 0.01% (w/v) bromophenol blue, 50 mM dithiothreitol) into a collection plate (384 well polypropylene microplate, V-shape, Greiner, 781 280). Eluates were spotted on nitrocellulose membranes (400 nl per spot) using an automated pin-tool liquid transfer (Biomek FX, Beckman). After drying, the membranes were rehydrated in 20% (v/v) ethanol and blocked by incubation with Odyssey blocking buffer (LICOR, 927-40000) for 1 h at room temperature. Blocked membranes were incubated overnight at 25° C. with Odyssey blocking buffer supplemented with a specific anti-mTOR antibody (Cell Signaling, 2972; 1:500) and 0.4% TWEEN-20. Then the membranes were washed in PBST buffer and incubated for 60 minutes at room temperature with the detection antibody (IRDye™ labelled antibody from LI-COR) diluted in Odyssey blocking buffer (LICOR 927-40000) containing 0.2% TWEEN-20. Then the membranes were washed with PBST and finally rinsed twice with PBS buffer to remove residual Tween-20. The membranes were then scanned with the Odyssey® Infrared Imaging System (LI-COR Biosciences). Fluorescence signals were recorded and analyzed according to the instructions of the manufacturer. Concentration response curves were computed with the software Activity Base. All data were normalized to the mean of 16 high (negative control) and 16 low (positive control) control wells on each plate. […]

SMILES | IC50
CNCc1cc2nc(-c3cc(C(C)(C)S(C)(=O)=O)cc(N4CC5CCC(C4)O5)n3)ccc2[nH]1 [Example 4, 1-(5-(6-(8-oxa-3-azabicyclo[3.2.1]octan-3-yl)-4-(2-(methylsulfonyl)propan-2-yl)pyridin-2-yl)-1H-pyrrolo[3,2-b]pyridin-2-yl)-N-methylmethanamine] | 2.51 to 31.6 nM and 2.51 to 316 nM
CC[C@H]1COCCN1c1cc(C2(S(C)(=O)=O)CCOCC2)cc(-c2ccc3[nH]c(CO)cc3n2)n1 [Example 33, (5-{6-[(3S)-3-ethylmorpholin-4-yl]-4-(4-methanesulfonyloxan-4-yl)pyridin-2-yl}-1H-pyrrolo[3,2-b]pyridin-2-yl)methanol] | 2.51 to 31.6 nM and 2.51 to 316 nM
CC[C@H]1COCCN1c1cc(C2(S(C)(=O)=O)CC2)cc(-c2ccc3[nH]c(CNC)cc3n2)n1 [Example 19, [(5-{6-[(3S)-3-ethylmorpholin-4-yl]-4-(1-methanesulfonylcyclopropyl)pyridin-2-yl}-1H-pyrrolo[3,2-b]pyridin-2-yl)methyl](methyl)amine] | 2.51 to 31.6 nM and 2.51 to 316 nM
CC[C@H]1COCCN1c1cc(C(C)(C)S(N)(=O)=O)cc(-c2ccc3[nH]c(CNC)cc3n2)n1 [Example 28, 2-{2-[(3S)-3-ethylmorpholin-4-yl]-6-{2-[(methylamino)methyl]-1H-pyrrolo[3,2-b]pyridin-5-yl}pyridin-4-yl}propane-2-sulfonamide] | 2.51 to 31.6 nM and 2.51 to 316 nM
CC[C@H]1COCCN1c1cc(C2(S(=O)(=O)C3CC3)CC2)cc(-c2ccc3[nH]c(CNC)cc3n2)n1 [Example 11, (S)-1-(5-(4-(1-(cyclopropylsulfonyl)cyclopropyl)-6-(3-ethylmorpholino)pyridin-2-yl)-1H-pyrrolo[3,2-b]pyridin-2-yl)-N-methylmethanamine] | 2.51 to 316 nM
CNCc1cc2nc(-c3cc(C(C)(C)S(C)(=O)=O)cc(N4[C@@H]5CC[C@H]4COC5)n3)ccc2[nH]1 [Example 3, 1-(5-(6-((1R,5S)-3-oxa-8-azabicyclo[3.2.1]octan-8-yl)-4-(2-(methylsulfonyl)propan-2-yl)pyridin-2-yl)-1H-pyrrolo[3,2-b]pyridin-2-yl)-N-methylmethanamine] | 2.51 to 316 nM
CC[C@H]1COCCN1c1cc(CS(C)(=O)=O)cc(-c2ccc3[nH]c(CO)cc3n2)n1 [Example 34, (5-{6-[(3S)-3-ethylmorpholin-4-yl]-4-(methanesulfonylmethyl)pyridin-2-yl}-1H-pyrrolo[3,2-b]pyridin-2-yl)methanol] | 2.51 to 31.6 nM and 2.51 to 316 nM
CNCc1cc2nc(-c3cc(CS(C)(=O)=O)cc(N4CCOC[C@@H]4C)n3)ccc2[nH]1 [Example 6, (S)—N-methyl-1-(5-(6-(3-methylmorpholino)-4-((methylsulfonyl)methyl)pyridin-2-yl)-1H-pyrrolo[3,2-b]pyridin-2-yl)methanamine] | 2.51 to 31.6 nM and 2.51 to 316 nM
CC[C@H]1COCCN1c1cc(CS(=O)(=O)N(C)C)cc(-c2ccc3[nH]c(CO)cc3n2)n1 [Example 35, 1-{2-[(3S)-3-ethylmorpholin-4-yl]-6-[2-(hydroxymethyl)-1H-pyrrolo[3,2-b]pyridin-5-yl]pyridin-4-yl}-N,N-dimethylmethanesulfonamide] | 2.51 to 31.6 nM and 2.51 to 316 nM
CNCc1cc2nc(-c3cc(C4(S(C)(=O)=O)CC4)cc(N4CCOC[C@@H]4C)n3)ccc2[nH]1 [Example 20, ({5-[4-(1-methanesulfonylcyclopropyl)-6-[(3S)-3-methylmorpholin-4-yl]pyridin-2-yl]-1H-pyrrolo[3,2-b]pyridin-2-yl}methyl)(methyl)amine] | 2.51 to 316 nM
CNCc1cc2nc(-c3cc(C(F)(F)S(C)(=O)=O)cc(N4CCOC[C@@H]4C)n3)ccc2[nH]1 [Example 12, (S)-1-(5-(4-(difluoro(methylsulfonyl)methyl)-6-(3-methylmorpholino)pyridin-2-yl)-1H-pyrrolo[3,2-b]pyridin-2-yl)-N-methylmethanamine] | 2.51 to 316 nM
CC[C@H]1COCCN1c1cc(C2(S(C)(=O)=O)CCOCC2)cc(-c2ccc3[nH]c(CN)cc3n2)n1 [Example 23, 1-(5-{6-[(3S)-3-ethylmorpholin-4-yl]-4-(4-methanesulfonyloxan-4-yl)pyridin-2-yl}-1H-pyrrolo[3,2-b]pyridin-2-yl)methanamine] | 2.51 to 31.6 nM and 2.51 to 316 nM
CCS(=O)(=O)C(C)(C)c1cc(-c2ccc3[nH]c(CNC)cc3n2)nc(N2CCOC[C@@H]2C)c1 [Example 7, (S)-1-(5-(4-(2-(ethylsulfonyl)propan-2-yl)-6-(3-methylmorpholino)pyridin-2-yl)-1H-pyrrolo[3,2-b]pyridin-2-yl)-N-methylmethanamine] | 2.51 to 316 nM
CC[C@H]1COCCN1c1cc(C2(S(=O)(=O)N(C)C)CCOCC2)cc(-c2ccc3[nH]c(CNC)cc3n2)n1 [Example 31, 4-{2-[(3S)-3-ethylmorpholin-4-yl]-6-{2-[(methylamino)methyl]-1H-pyrrolo[3,2-b]pyridin-5-yl}pyridin-4-yl}-N,N-dimethyloxane-4-sulfonamide] | 2.51 to 31.6 nM and 2.51 to 316 nM
CC[C@H]1COCCN1c1cc(CS(=O)(=O)C2CC2)cc(-c2ccc3[nH]c(CNC)cc3n2)n1 [Example 10, (S)-1-(5-(4-((cyclopropylsulfonyl)methyl)-6-(3-ethylmorpholino)pyridin-2-yl)-1H-pyrrolo[3,2-b]pyridin-2-yl)-N-methylmethanamine] | 2.51 to 31.6 nM and 2.51 to 316 nM
CC[C@H]1COCCN1c1cc(C(C)(C)S(=O)(=O)C2CC2)cc(-c2ccc3[nH]c(CNC)cc3n2)n1 [Example 9, (S)-1-(5-(4-(2-(cyclopropylsulfonyl)propan-2-yl)-6-(3-ethylmorpholino)pyridin-2-yl)-1H-pyrrolo[3,2-b]pyridin-2-yl)-N-methylmethanamine] | 2.51 to 316 nM
CNCc1cc2nc(-c3cc(C(C)(C)S(C)(=O)=O)cc(N4CCOC[C@@H]4C)n3)ccc2[nH]1 [Example 2, (S)—N-methyl-1-(5-(6-(3-methylmorpholino)-4-(2-(methylsulfonyl)propan-2-yl)pyridin-2-yl)-1H-pyrrolo[3,2-b]pyridin-2-yl)methanamine] | 2.51 to 31.6 nM and 2.51 to 316 nM
CC[C@H]1COCCN1c1cc(CS(=O)(=O)N(C)C)cc(-c2ccc3[nH]c(CNC)cc3n2)n1 [Example 17, (S)-1-(2-(3-ethylmorpholino)-6-(2-((methylamino)methyl)-1H-pyrrolo[3,2-b]pyridin-5-yl)pyridin-4-yl)-N,N-dimethylmethanesulfonamide] | 2.51 to 31.6 nM and 2.51 to 316 nM
CC[C@H]1COCCN1c1cc(C(C)(C)S(C)(=O)=O)cc(-c2ccc3[nH]c(CN)cc3n2)n1 [Example 21, 1-(5-{6-[(3S)-3-ethylmorpholin-4-yl]-4-(2-methanesulfonylpropan-2-yl)pyridin-2-yl}-1H-pyrrolo[3,2-b]pyridin-2-yl)methanamine] | 2.51 to 31.6 nM and 2.51 to 316 nM
CNCc1cc2nc(-c3cc(C(C)(C)S(C)(=O)=O)cc(N4C5CCCC4COC5)n3)ccc2[nH]1 [Example 5, 1-(5-(6-(3-oxa-9-azabicyclo[3.3.1]nonan-9-yl)-4-(2-(methylsulfonyl)propan-2-yl)pyridin-2-yl)-1H-pyrrolo[3,2-b]pyridin-2-yl)-N-methylmethanamine] | 2.51 to 316 nM
CC[C@H]1COCCN1c1cc(CS(=O)(=O)NC)cc(-c2ccc3[nH]c(CNC)cc3n2)n1 [Example 30, 1-{2-[(3S)-3-ethylmorpholin-4-yl]-6-{2-[(methylamino)methyl]-1H-pyrrolo[3,2-b]pyridin-5-yl}pyridin-4-yl}-N-methylmethanesulfonamide] | 2.51 to 31.6 nM and 2.51 to 316 nM
